Measurements reported in patent US10227331B2 (priority 2015, dated 2019).

Experiments:
[1] = tested on: Klebsiella pneumoniae expressing VIM-1 (IHMA599644); type: cell-based; settings: with imipenem 1 μg/ml, 95% inhibition of bacterial growth; for Klebsiella pneumoniae MITC95: VIM-1 (IHMA599644)
Summary of the method: (§1)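 Clinical strains grown overnight on blood agar, then diluted 1:100 in 1.1× CAMHB and exposed to test compound with imipenem at 1 μg/ml. Incubation was 22–24 h at 35° C; growth was read by absorbance to find the compound concentration restoring imipenem susceptibility.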

[2] = tested on: Escherichia coli expressing NDM-1 (CLB30005, CLB30016); type: cell-based; settings: with imipenem 1 μg/ml, 95% inhibition of bacterial growth; for Escherichia coli MITC95: NDM-1 (CLB30016)
Summary of the method: as §1

[3] = tested on: Serratia marcescens expressing IMP-1 (CL5741); type: cell-based; settings: with imipenem 1 μg/ml, 95% inhibition of bacterial growth; for Serratia marcescens MITC95: IMP-1 (CL5741)
Summary of the method: as §1

[4] = biological target: IMP-1 (Serratia marcescens, UniProt P52699); assay: biochemical; type: biochemical; settings: CCF2-FA substrate, 2 hours at 25° C; read-out: IMP-1 IC50
Summary of the method: (§2)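 Test compound, enzyme and the FRET cephalosporin substrate CCF2-FA are incubated together for 2 hours at 25° C. Cleavage is followed by fluorescence, and IC50 values are derived from semi-logarithmic inhibition curves fitted with a 4-parameter model.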

[5] = biological target: NDM-1 (Klebsiella pneumoniae, UniProt C7C422); assay: biochemical; type: biochemical; settings: CCF2-FA substrate, 2 hours at 25° C; read-out: NDM-1 IC50
Summary of the method: as §2

[6] = tested on: P. aeruginosa expressing IMP-1, efflux+ (MB9798); type: cell-based, Pseudomonas aeruginosa; settings: for P. aeruginosa expressing IMP-1, efflux+ (MB9798) MITC95: imipenem at 2 μg/mL, in the presence of a class A, C, D serine β-lactamase inhibitor closely related to relebactam; for Efflux ratio: ratio MITC95 PA_9798/MITC95 PA_9799
Excerpt: (§3) The strain background is Pseudomonas aeruginosa PAO1.

[7] = tested on: P. aeruginosa expressing IMP-1, efflux− (MB9799); assay: Efflux: concentration of MBL inhibitor which restores susceptibility to imipenem; type: cell-based, Pseudomonas aeruginosa; settings: imipenem at 2 μg/mL, in the presence of a class A, C, D serine β-lactamase inhibitor closely related to relebactam
Excerpt: as §3

[8] = biological target: VIM-1 (Pseudomonas aeruginosa (strain ATCC 15692 / DSM 22644 / CIP 104116 / JCM 14847 / LMG 12228 / 1C / PRS 101 / PAO1), UniProt A0A0F7KYQ8); assay: biochemical; settings: CCF2-FA substrate, 2 hours at 25° C
Summary of the method: as §2

IMP-1, sequence (P52699 whole entry, looked up, species assumed): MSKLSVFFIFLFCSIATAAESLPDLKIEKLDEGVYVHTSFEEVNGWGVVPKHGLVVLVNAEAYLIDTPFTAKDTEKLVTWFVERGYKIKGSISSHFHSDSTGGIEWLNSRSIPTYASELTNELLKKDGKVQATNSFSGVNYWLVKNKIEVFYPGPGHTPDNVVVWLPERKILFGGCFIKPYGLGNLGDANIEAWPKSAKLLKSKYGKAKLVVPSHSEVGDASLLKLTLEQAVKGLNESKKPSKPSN
NDM-1, sequence (C7C422 whole entry, looked up, species assumed): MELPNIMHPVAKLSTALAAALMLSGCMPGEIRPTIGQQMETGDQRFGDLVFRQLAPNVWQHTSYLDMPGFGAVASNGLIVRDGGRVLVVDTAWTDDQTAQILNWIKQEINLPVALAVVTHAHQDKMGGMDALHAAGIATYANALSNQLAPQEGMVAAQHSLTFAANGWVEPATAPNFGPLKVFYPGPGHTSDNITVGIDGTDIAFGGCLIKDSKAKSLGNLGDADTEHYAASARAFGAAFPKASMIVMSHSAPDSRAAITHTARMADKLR

| SMILES | Klebsiella pneumoniae expressing VIM-1 (IHMA599644) MITC95 [1] [µM] | Escherichia coli expressing NDM-1 (CLB30016) MITC95 [2] [µM] | Serratia marcescens expressing IMP-1 (CL5741) MITC95 [3] [µM] | IC50 [4] [nM] | IC50 [5] [nM] | P. aeruginosa expressing IMP-1, efflux+ (MB9798) MITC95 [6] [µM] | Efflux ratio [6] | P. aeruginosa expressing IMP-1, efflux− (MB9799) MITC95 [7] [µM] | IC50 [8] [nM] | Klebsiella pneumoniae MITC95 [1] [µM] | Escherichia coli MITC95 [2] [µM] | Serratia marcescens MITC95 [3] [µM] |
| --- | --- | --- | --- | --- | --- | --- | --- | --- | --- | --- | --- | --- |
| NS(=O)(=O)c1c(S(=O)(=O)C2CNC2)ccc(-c2cccc3[nH]ncc23)c1-c1nnn[nH]1.O=C(O)C(F)(F)F [Example 100, 3-((4-(1H-indazol-4-yl)-2-sulfamoyl-3-(1H-tetrazol-5-yl)phenyl)sulfonyl)azetidin-1-ium 2,2,2-trifluoroacetate] | 3.125 | 6.25 | 3.125 | 1.61 | 0.358 | 6.25 | 4.00 | 1.563 | 0.331 |  |  |  |
| NCCS(=O)(=O)c1ccc(-c2cccc3sc(C(N)=O)nc23)c(-c2nn[nH]n2)c1S(N)(=O)=O [Example 89, 4-(4-(2-aminoethylsulfonyl)-3-sulfamoyl-2-(2H-tetrazol-5-yl)phenyl)benzo[d]thiazole-2-carboxamide] | 3.125 | 1.563 | 1.563 | 0.601 | 0.277 | 3.125 | 2.00 | 1.563 | 0.152 |  |  |  |
| N=C(N)c1nc2c(-c3ccc(S(=O)(=O)C4CNC4)c(S(N)(=O)=O)c3-c3nnn[nH]3)cccc2s1 [Example 62, 4-(4-(Azetidin-3-ylsulfonyl)-3-sulfamoyl-2-(1H-tetrazol-5-yl)phenyl)benzo[d]thiazole-2-carboximidamide] | 1.563 | 0.3906 | 1.563 | 2.63 | 0.345 | 1.563 | 2.00 | 0.7813 | 0.396 |  |  |  |
| Nc1nc2cccc(-c3ccc([S+]([O-])C4CCNCC4)c(S(N)(=O)=O)c3-c3nn[nH]n3)c2[nH]1 (stereo not drawn) [Example 14, 3-(2-amino-3H-benzo[d]imidazol-4-yl)-6-(piperidin-4-ylsulfinyl)-2-(2H-tetrazol-5-yl)benzenesulfonamide] | 3.125 | 6.25 | 3.125 | 23.9 | 0.292 | 6.25 | 4.00 | 1.563 | 0.868 |  |  |  |
| NS(=O)(=O)c1cccc(-c2ccc(S(=O)(=O)C3CNC3)c(S(N)(=O)=O)c2-c2nn[nH]n2)c1 [Example 247, 4-(Azetidin-3-ylsulfonyl)-2-(2H-tetrazol-5-yl)-[1,1′-biphenyl]-3,3′-disulfonamide] |  |  |  | 3.24 | 2.01 | 25 | 15.99 | 1.563 | 1.83 | 3.125 | 1.563 | 1.563 |
| Cn1cnc2cc(-c3ccc(S(=O)(=O)C4CNC4)c(S(N)(=O)=O)c3-c3nnn[nH]3)cnc21.O=C(O)C(F)(F)F [Example 103, 3-((4-(3-methyl-3H-imidazo[4,5-b]pyridin-6-yl)-2-sulfamoyl-3-(1H-tetrazol-5-yl)phenyl)sulfonyl)azetidin-1-ium 2,2,2-trifluoroacetate] | 6.25 | 12.5 | 3.125 | 1.85 | 0.954 | 12.5 | 8.00 | 1.563 | 0.581 |  |  |  |
| Cn1c(N)nc2c(-c3ccc(S(=O)(=O)C[C@H](O)CN)c(S(N)(=O)=O)c3-c3nn[nH]n3)cccc21 [Example 362, (R)-3-(2-amino-1-methyl-1H-benzo[d]imidazol-4-yl)-6-((3-amino-2-hydroxypropyl)sulfonyl)-2-(2H-tetrazol-5-yl) benzenesulfonamide] |  |  |  | 0.408 | 0.295 | 0.7813 | 1.00 | 0.7813 | 0.605 | 1.563 | 0.3906 | 0.7813 |
| Nc1ncccc1-c1ccc(S(=O)(=O)C2CNC2)c(S(N)(=O)=O)c1-c1nn[nH]n1 [Example 219, 3-(2-aminopyridin-3-yl)-6-(azetidin-3-ylsulfonyl)-2-(2H-tetrazol-5-yl) benzenesulfonamide] | 1.281 | 0.125 | 0.6406 | 5.66 | 0.647 | 6.25 | 4.88 | 1.281 | 0.52 |  |  |  |
| N#Cc1ccc(-c2ccc(S(=O)(=O)CCN)c(S(N)(=O)=O)c2-c2nnn[nH]2)c2[nH]c(N)nc12 [Example 295, 3-(2-amino-4-cyano-1H-benzo[d]imidazol-7-yl)-6-((2-aminoethyl)sulfonyl)-2-(1H-tetrazol-5-yl)benzenesulfonamide] |  |  |  | 1.22 | 0.116 | 1.563 | 1.00 | 1.563 | 0.105 | 3.125 | 1.563 | 3.125 |
| C[C@@H](CN)S(=O)(=O)c1ccc(-c2cccc3c2nc(N)n3C)c(-c2nn[nH]n2)c1S(N)(=O)=O [Example 280, 3-(2-amino-1-methyl-1H-benzo[d]imidazol-4-yl)-6-((S)-1-aminopropan-2-ylsulfonyl)-2-(2H-tetrazol-5-yl)benzenesulfonamide] |  |  |  | 0.954 | 0.224 | 3.125 | 4.00 | 0.7813 | 0.445 | 1.563 | 0.3906 | 0.7813 |
| Nc1nc2c(-c3ccc(S(=O)(=O)C4CNC4)c(S(N)(=O)=O)c3-c3nn[nH]n3)cccc2[nH]1 [Example 43, 3-(2-amino-1H-benzo[d]imidazol-4-yl)-6-(azetidin-3-ylsulfonyl)-2-(2H-tetrazol-5-yl)benzenesulfonamide] | 1.151 | 0.2902 | 0.7982 | 0.828 | 0.0835 | 0.6081 | 0.95 | 0.6406 | 0.258 |  |  |  |
| Nc1nc2c(-c3ccc(S(=O)(=O)[C@H]4C[C@@H](N)C4)c(S(N)(=O)=O)c3-c3nn[nH]n3)cccc2s1 [Example 180, 3-(2-aminobenzo[d]thiazol-4-yl)-6-((1s,3s)-3-aminocyclobutylsulfonyl)-2-(2H-tetrazol-5-yl)benzenesulfonamide] | 3.125 | 3.125 | 1.563 | 0.26 | 0.0833 | 0.7813 | 1.00 | 0.7813 | 0.196 |  |  |  |
| Nc1nc2c(-c3ccc(S(=O)(=O)c4ccccc4)c(S(N)(=O)=O)c3-c3nnn[nH]3)cccc2s1 [Example 232, 3-(2-aminobenzo[d]thiazol-4-yl)-6-(phenylsulfonyl)-2-(1H-tetrazol-5-yl)benzenesulfonamide] | 12.5 | 6.25 | 3.125 | 0.586 | 0.583 | 12.5 | 8.00 | 1.563 | 0.539 |  |  |  |
